Experimental data as given in patent publication US8835644B2, “Broad spectrum benzothiophene-nitrothiazolide and other antimicrobials” (University of Virginia Patent Foundation, priority 2009, dated 2014).
Values after ≈ are worked out from the molar mass of the structure shown. Read-outs that look alike come from different tables or passages of the source.

Experiments:
H. pylori = experiment: MIC testing by broth dilution, H. pylori; type: cell-based, Helicobacter pylori
Procedure, shortened: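 Broth dilution MIC determination against H. pylori: a standard inoculum in 100 microliters of Brain Heart Infusion medium was placed in 96 well microplates. Test compounds began at 32 μg/ml in 200 microliters in well one and were serially diluted over a 32 to 0.06 range. After 24 h, plates were scored by eye and the first well without growth was recorded as the MIC.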

E. coli = experiment: MIC testing by broth dilution, E. coli plank; type: cell-based, Escherichia coli
Procedure, shortened: (§1)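 Media: LB (E. coli), Trypticase Soy (S. epidermidis), BHI (C. jejuni); plank cells. C. difficile on Wilkins Chalgrin agar, anaerobic Kirby-Bauer disks, zone vs NTZ zone ratio.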

MRSA = experiment: MIC testing by broth dilution, MRSA; type: cell-based, Staphylococcus aureus
Procedure, shortened: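 Values are broth-dilution MICs, defined as the well showing no growth on visual reading after 24 h; the tested range was 32 to 0.06 μg/ml, in organism-specific media (LB, Trypticase Soy, Brain Heart Infusion). The C. difficile entries come instead from anaerobic Kirby-Bauer disk zones, normalised to NTZ.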

[1] = test system: PFOR (pyruvate ferredoxin oxidoreductase); experiment: Direct PFOR enzyme assay; type: biochemical
Protocol: (§2) Representative compounds of the invention were tested in a series of assays against a series of organisms as described above. […] The organisms tested include, C. difficile, H. pylori, C. jejuni, MRSA, S. epidermidis, and E. coli. S. epidermidis and E. coli were tested in the plank and biofilm assay. A disk diffusion assay was also used for C. difficile. Direct PFOR enzyme assays were also performed. All analogues and derivatives were not tested on every organism in every type of assay (the “-” in each table means that it was not tested).

C. difficile [2] = experiment: Disk diffusion (Kirby Bower), C. difficile; type: cell-based, Clostridium difficile; settings: for Disk Diff (%) C. difficile: Nitazoxanide = 100, Furan analogues table; for Disk Diffusion (%) C. difficile: zone of inhibited growth as relative ratio to the zone for NTZ
Procedure, shortened: as §1

E. coli biofilm = E. coli biofilm assay (activity tables); type: cell-based, Escherichia coli
Procedure, shortened: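 After 24 h static culture at 37 °C in wells containing NTZ, strain 042 (1:100 inoculum) biofilm was quantified by 0.5% crystal violet absorbance at 570 nm. Planktonic growth was taken from turbidity or LB plate counts as cfu/ml; all runs triplicate, reported as mean and SD.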

C. jejuni = experiment: MIC testing by broth dilution, C. jejuni; type: cell-based, Campylobacter jejuni
Procedure, shortened: as §1

C. difficile [3] = experiment: MIC by agar dilution, C. difficile; type: cell-based, Clostridium difficile
Protocol: A standard broth dilution protocol was used in 96 well microplates containing a standard dilution of the microorganism to be tested in 100 microliters of the appropriate medium. Appropriate medium: E. coli, LB medium; Staphylococcus strains, Trypticase Soy; and for H. pylori and C. jejuni, Brain Heart Infusion. The compounds to be tested were set at 32 μg/ml in 200 microliters in well one and then serially diluted to provide a range from 32 to 0.06. The wells were scored visually at 24 h. The well where there was no growth was recorded as the MIC. […]
as §2

S. epidermidis = experiment: MIC testing by broth dilution, S. epidermidis plank; type: cell-based, Staphylococcus epidermidis
Procedure, shortened: as §1

S. epidermidis biofilm = S. epidermidis biofilm assay (activity tables); type: cell-based, Staphylococcus epidermidis; settings: for MIC S. epidermidis Biofilm: Furan analogues table
Procedure, shortened: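 Overnight TSB cultures diluted to OD600 0.01 and grown static with compound (triplicate) at 37° C for 16 h; turbidity recorded for growth. Biofilm: washed wells ethanol-fixed, stained with 0.5% crystal violet, A570 read before and after 95% ethanol extraction; mean ± SD.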

[4] = broth dilution, Brain Heart Infusion, 24 h, read-out: MIC (μM) H. pylori
[5] = broth dilution, LB medium, 24 h, read-out: MIC (μM) E. coli Plank
[6] = broth dilution, Trypticase Soy, 24 h, read-out: MIC (μM) MRSA
[7] = biofilm, read-out: MIC (μM) E. coli Biofilm
[8] = broth dilution, Trypticase Soy, 24 h, read-out: MIC (μM) S. epidermidis Plank
[9] = broth dilution, Brain Heart Infusion, 24 h, read-out: MIC (μM) C. jejuni
[10] = agar dilution, anaerobic, Wilkins Chalgrin agar, read-out: MIC (μM) C. difficile
[11] = Furan analogues table, read-out: MIC H. pylori
[12] = planktonic, Furan analogues table, read-out: MIC E. coli Plank
[13] = Furan analogues table, read-out: MIC MRSA
[14] = biofilm, Furan analogues table, read-out: MIC E. coli Biofilm
[15] = planktonic, Furan analogues table, read-out: MIC S. epidermidis Plank
[16] = Furan analogues table, read-out: MIC C. jejuni

| Structure (SMILES) | PFOR inhibition relative to nitazoxanide (=100) ([1]; Furan analogues table) [%] | Disk Diff (%) C. difficile (C. difficile [2]) [%] | PFOR inhibition relative to nitazoxanide (=100) [1] [%] | MIC (H. pylori; [11]) [µM] | MIC (E. coli; [12]) [µM] | MIC S. epidermidis Biofilm (S. epidermidis biofilm) [µM] | MIC (MRSA; [13]) [µM] | MIC (E. coli biofilm; [14]) [µM] | MIC (S. epidermidis; [15]) [µM] | MIC (C. jejuni; [16]) [µM] | other results |
| --- | --- | --- | --- | --- | --- | --- | --- | --- | --- | --- | --- |
| O=C(Nc1ncc([N+](=O)[O-])s1)c1ccoc1 [VPC16a1006, N-(5-Nitrothiazol-2-yl)furan-3-carboxamide] | 98 | 97 ± 3 | – | – | – | – | – | – | – | – | MIC (H. pylori; Helicobacter pylori, Furan analogues table, read-out: MIC H. pylori): 0.8 µM (≈ 0.191 µg/mL); MIC (E. coli; Escherichia coli, planktonic, Furan analogues table, read-out: MIC E. coli Plank): 134 µM (≈ 32 µg/mL); MIC (MRSA; Staphylococcus aureus, MRSA, Furan analogues table, read-out: MIC MRSA): 50.2 µM (≈ 12 µg/mL); MIC (E. coli biofilm; Escherichia coli, biofilm, Furan analogues table, read-out: MIC E. coli Biofilm): 134 µM (≈ 32 µg/mL); MIC (C. jejuni; Campylobacter jejuni, Furan analogues table, read-out: MIC C. jejuni): 12.5 µM (≈ 2.99 µg/mL); MIC (C. difficile [3]; Clostridioides difficile, Furan analogues table, read-out: MIC C. difficile): 33.4 µM (≈ 7.99 µg/mL) |
| CCCCCC(=O)Nc1ncc([N+](=O)[O-])s1 [VPC16a1007, N-(5-Nitrothiazol-2-yl)hexanamide] | – | – | 123 | – | – | – | – | – | – | – | MIC (H. pylori; Helicobacter pylori, broth dilution, Brain Heart Infusion, 24 h, read-out: MIC (μM) H. pylori): 1.4 µM (≈ 0.341 µg/mL); MIC (E. coli; Escherichia coli, broth dilution, LB medium, 24 h, read-out: MIC (μM) E. coli Plank): 132 µM (≈ 32 µg/mL); Disk Diffusion (%) C. difficile (C. difficile [2]): 56.5 ± 0.5%; MIC (E. coli biofilm; Escherichia coli, read-out: MIC (μM) E. coli Biofilm): 132 µM (≈ 32 µg/mL); MIC (S. epidermidis; Staphylococcus epidermidis, broth dilution, Trypticase Soy, 24 h, read-out: MIC (μM) S. epidermidis Plank): 32.9 µM (≈ 8 µg/mL); MIC (C. jejuni; Campylobacter jejuni, broth dilution, Brain Heart Infusion, 24 h, read-out: MIC (μM) C. jejuni): 5.5 µM (≈ 1.34 µg/mL); MIC (C. difficile [3]; Clostridioides difficile, agar dilution, anaerobic, Wilkins Chalgrin agar, read-out: MIC (μM) C. difficile): 65.8 µM (≈ 16 µg/mL) |
| O=C(Nc1ncc([N+](=O)[O-])s1)C1CCCCC1 [VPC16a1010] | – | – | 93 | – | – | – | – | – | – | – | MIC (H. pylori; [4]): 0.7 µM (≈ 0.179 µg/mL); MIC (E. coli; [5]): 125.2 µM (≈ 32 µg/mL); MIC (MRSA; [6]): 125.2 µM (≈ 32 µg/mL); Disk Diffusion (%) C. difficile (C. difficile [2]): 53 ± 3%; MIC (E. coli biofilm; [7]): 31.3 µM (≈ 7.99 µg/mL); MIC (S. epidermidis; [8]): 31.3 µM (≈ 7.99 µg/mL); MIC (C. jejuni; [9]): 11.4 µM (≈ 2.91 µg/mL); MIC (C. difficile [3]; [10]): 62.6 µM (≈ 16 µg/mL) |
| O=C(Nc1ncc([N+](=O)[O-])s1)c1ccc([N+](=O)[O-])o1 [VPC16b1007] | – | 102 ± 8 | – | 21.1 (≈ 6 µg/mL) | 14.1 (≈ 4.01 µg/mL) | 56.3 (≈ 16 µg/mL) | 112.6 (≈ 32 µg/mL) | 26.4 (≈ 7.5 µg/mL) | 28.1 (≈ 7.99 µg/mL) | 7.0 (≈ 1.99 µg/mL) | MIC (C. difficile [3]; Furan analogues table, read-out: MIC C. difficile): 28.2 µM (≈ 8.01 µg/mL) |
| COc1cc([N+](=O)[O-])ccc1C(=O)Nc1ncc([N+](=O)[O-])s1 [VPC161093] | – | – | 115 | – | – | – | – | – | – | – | MIC (H. pylori; [4]): 0.6 µM (≈ 0.195 µg/mL); MIC (E. coli; [5]): 98.7 µM (≈ 32 µg/mL); MIC (μM) S. epidermidis Biofilm (S. epidermidis biofilm): 12.3 µM (≈ 3.99 µg/mL); MIC (MRSA; [6]): 98.7 µM (≈ 32 µg/mL); MIC (E. coli biofilm; [7]): 98.7 µM (≈ 32 µg/mL); MIC (S. epidermidis; [8]): 12.3 µM (≈ 3.99 µg/mL); MIC (C. jejuni; [9]): 9.3 µM (≈ 3.02 µg/mL); MIC (C. difficile [3]; [10]): 98.7 µM (≈ 32 µg/mL) |
| O=C(Nc1ncc([N+](=O)[O-])s1)c1ccco1 [VPC161124] | 82 | 100 | – | 1.0 (≈ 0.239 µg/mL) | 133.8 (≈ 32 µg/mL) | 66.9 (≈ 16 µg/mL) | 50.2 (≈ 12 µg/mL) | 33.4 (≈ 7.99 µg/mL) | 66.9 (≈ 16 µg/mL) | 8.4 (≈ 2.01 µg/mL) | – |
| O=C(Nc1ncc([N+](=O)[O-])s1)c1cc2ccccc2o1 [VPC161144] | 70 | – | – | 0.6 (≈ 0.174 µg/mL) | 110.6 (≈ 32 µg/mL) | 110.6 (≈ 32 µg/mL) | 57.0 (≈ 16.5 µg/mL) | 110.6 (≈ 32 µg/mL) | 110.6 (≈ 32 µg/mL) | 110.6 (≈ 32 µg/mL) | – |
